# From US12344603B2 (Genentech, Inc., priority 2020, dated 2025)
# Molecular target: IRE1α (Homo sapiens (Human), UniProt O75460, D688N)
# Experiment: IRE1α TR-FRET competition binding assay (IRE1α HTRF)
# Details: TR-FRET competition binding to kinase domain of IRE1α
# How it was run: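 Competition of compounds against an Alexa fluor 647 ATP-site probe (2 nM final) for the His-tagged kinase domain (0.25 nM final), detected via 2 nM Eu anti-His antibody by TR-FRET, 665 and 615 nm emission. Protein–antibody premix 1 h, 4° C; reaction 1 h, room temperature, pH 7.5 HEPES buffer.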
# Sequence of IRE1α (O75460 547-977 D688N): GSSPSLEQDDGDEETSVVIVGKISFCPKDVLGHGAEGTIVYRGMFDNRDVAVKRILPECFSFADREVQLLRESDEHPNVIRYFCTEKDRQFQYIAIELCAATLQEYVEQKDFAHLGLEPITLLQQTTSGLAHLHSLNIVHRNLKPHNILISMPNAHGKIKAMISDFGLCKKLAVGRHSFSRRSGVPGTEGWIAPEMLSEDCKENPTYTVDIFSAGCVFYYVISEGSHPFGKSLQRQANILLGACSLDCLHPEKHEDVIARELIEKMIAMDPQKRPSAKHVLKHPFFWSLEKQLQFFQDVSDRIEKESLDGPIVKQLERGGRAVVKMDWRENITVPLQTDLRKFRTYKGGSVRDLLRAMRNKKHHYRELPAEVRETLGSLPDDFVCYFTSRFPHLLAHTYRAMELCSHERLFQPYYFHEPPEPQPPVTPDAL
row,SMILES,IC50 [nM]
1,"CC(C)n1c(=O)c(-c2ccc(NS(=O)(=O)CCC(C)(F)F)c(F)c2)nc2cnc(N[C@@H]3CNC[C@H](CF)C3)nc21 [Compound 77, 3,3-Difluoro-N-[2-fluoro-4-[2-[[(3S,5R)-5-(fluoromethyl)-3-piperidyl]amino]-8-isopropyl-7-oxo-pteridin-6-yl]phenyl]butane-1-sulfonamide]",0.8
2,"CC(C)n1c(=O)c(-c2ccc(NS(=O)(=O)CCC(F)F)c(F)c2)nc2cnc(N[C@@H]3CNC[C@H](CF)C3)nc21 [Compound 78, 3,3-Difluoro-N-[2-fluoro-4-[2-[[(3S,5R)-5-(fluoromethyl)-3-piperidyl]amino]-8-isopropyl-7-oxo-pteridin-6-yl]phenyl]propane-1-sulfonamide]",1
3,"CCCS(=O)(=O)Nc1ccc(-c2nc3cnc(N[C@@H]4CNC[C@H](CF)C4)nc3n(C(C)C)c2=O)cc1F [Compound 79, N-[2-Fluoro-4-[2-[[(3S,5R)-5-(fluoromethyl)-3-piperidyl]amino]-8-isopropyl-7-oxo-pteridin-6-yl]phenyl]propane-1-sulfonamide]",1.5
4,"CC(C)n1c(=O)c(-c2ccc(NS(=O)(=O)Cc3ccccc3C#N)c(F)c2)nc2cnc(N[C@@H]3CNC[C@@H](F)C3)nc21 [Compound 80, 1-(2-Cyanophenyl)-N-[2-fluoro-4-[2-[[(3S,5S)-5-fluoro-3-piperidyl]amino]-8-isopropyl-7-oxo-pteridin-6-yl]phenyl]methanesulfonamide]",0.2
5,"CC(C)n1c(=O)c(-c2ccc(NS(=O)(=O)Cc3ccc(C#N)cc3)c(F)c2)nc2cnc(N[C@@H]3CNC[C@@H](F)C3)nc21 [Compound 81, 1-(4-Cyanophenyl)-N-[2-fluoro-4-[2-[[(3S,5S)-5-fluoro-3-piperidyl]amino]-8-isopropyl-7-oxo-pteridin-6-yl]phenyl]methanesulfonamide]",0.1
6,"CCCS(=O)(=O)Nc1ccc(-c2nc3cnc(N[C@@H]4CNC[C@@H](F)C4)nc3n(C(C)C)c2=O)cc1F [Compound 82, N-[2-Fluoro-4-[2-[[(3S,5S)-5-fluoro-3-piperidyl]amino]-8-isopropyl-7-oxo-pteridin-6-yl]phenyl]propane-1-sulfonamide]",0.8
7,"CCC(F)(F)CS(=O)(=O)Nc1ccc(-c2nc3cnc(N[C@@H]4CNC[C@@H](F)C4)nc3n(C(C)C)c2=O)cc1F [Compound 83, 2,2-Difluoro-N-[2-fluoro-4-[2-[[(3S,5S)-5-fluoro-3-piperidyl]amino]-8-isopropyl-7-oxo-pteridin-6-yl]phenyl]butane-1-sulfonamide]",0.4
8,"CC(C)n1c(=O)c(-c2ccc(NS(=O)(=O)CCC(C)(F)F)c(F)c2)nc2cnc(N[C@@H]3CNC[C@@H](F)C3)nc21 [Compound 84, 3,3-Difluoro-N-[2-fluoro-4-[2-[[(3S,5S)-5-fluoro-3-piperidyl]amino]-8-isopropyl-7-oxo-pteridin-6-yl]phenyl]butane-1-sulfonamide]",0.4
9,CC(C)n1c(=O)c(-c2cc(NS(=O)(=O)CCC(F)(F)F)nn2C)cc2cnc(N[C@@H]3CNC[C@@H](F)C3)nc21 [Compound 85],16
10,"CC(C)n1c(=O)c(-c2cc(F)c(NS(=O)(=O)Cc3ccccc3F)c(F)c2F)cc2cnc(N[C@@H]3CNC[C@@H](F)C3)nc21 [Compound 86, 1-(2-Fluorophenyl)-N-(2,3,6-trifluoro-4-(2-(((3S,5S)-5-fluoropiperidin-3-yl)amino)-8-isopropyl-7-oxo-7,8-dihydropyrido[2,3-d]pyrimidin-6-yl)phenyl)methanesulfonamide]",0.16
11,"CC(C)n1c(=O)c(-c2cc(F)c(NS(=O)(=O)Cc3ccccc3F)c(F)c2F)cc2cnc(N[C@H]3CNC[C@@H](O)C3)nc21 [Compound 88, 1-(2-Fluorophenyl)-N-(2,3,6-trifluoro-4-(2-(((3R,5S)-5-hydroxypiperidin-3-yl)amino)-8-isopropyl-7-oxo-7,8-dihydropyrido[2,3-d]pyrimidin-6-yl)phenyl)methanesulfonamide]",8.5

# The next lines start with the values.
row,IC50 [nM],SMILES
1,0.34,"CC(C)n1c(=O)c(-c2cc(F)c(NS(=O)(=O)Cc3ccccc3F)c(F)c2F)cc2cnc(N[C@@H]3CNC[C@H](O)C3)nc21 [Compound 89, 1-(2-fluorophenyl)-N-(2,3,6-trifluoro-4-(2-(((3S,5R)-5-hydroxypiperidin-3-yl)amino)-8-isopropyl-7-oxo-7,8-dihydropyrido[2,3-d]pyrimidin-6-yl)phenyl)methanesulfonamide]"
2,0.21,"CC(C)n1c(=O)c(-c2ccc(NS(=O)(=O)Cc3ccccc3F)c(F)c2)cc2cnc(N[C@@H]3CNC[C@@H](F)C3)nc21 [Compound 90, N-(2-Fluoro-4-(2-(((3S,5S)-5-fluoropiperidin-3-yl)amino)-8-isopropyl-7-oxo-7,8-dihydropyrido[2,3-d]pyrimidin-6-yl)phenyl)-1-(2-fluorophenyl)methanesulfonamide]"
3,0.13,"CC(C)n1c(=O)c(-c2ccc(NS(=O)(=O)CCC(F)(F)F)c(F)c2)cc2cnc(N[C@H]3CC[C@H](N(C)C)CC3)nc21 [Compound 91, N-(4-(2-(((1r,4r)-4-(Dimethylamino)cyclohexyl)amino)-8-isopropyl-7-oxo-7,8-dihydropyrido[2,3-d]pyrimidin-6-yl)-2-fluorophenyl)-3,3,3-trifluoropropane-1-sulfonamide]"
4,0.3,"CC(C)n1c(=O)c(-c2ccc(NS(=O)(=O)CCC(F)(F)F)c(F)c2)cc2cnc(N[C@@H]3CNC[C@@H](F)C3)nc21 [Compound 92, 3,3,3-Trifluoro-N-(2-fluoro-4-(2-(((3S,5S)-5-fluoropiperidin-3-yl)amino)-8-isopropyl-7-oxo-7,8-dihydropyrido[2,3-d]pyrimidin-6-yl)phenyl)propane-1-sulfonamide]"
5,0.24,"CC(C)n1c(=O)c(-c2ccc(NS(=O)(=O)Cc3ccccc3F)nc2)cc2cnc(N[C@@H]3CNC[C@@H](F)C3)nc21 [Compound 93, 1-(2-Fluorophenyl)-N-(5-(2-(((3S,5S)-5-fluoropiperidin-3-yl)amino)-8-isopropyl-7-oxo-7,8-dihydropyrido[2,3-d]pyrimidin-6-yl)pyridin-2-yl)methanesulfonamide]"
6,0.27,"CC(C)n1c(=O)c(-c2ccc(NS(=O)(=O)Cc3ccccc3F)cn2)cc2cnc(N[C@H]3CC[C@H](N(C)C)CC3)nc21 [Compound 94, N-(6-(2-(((1r,4r)-4-(Dimethylamino)cyclohexyl)amino)-8-isopropyl-7-oxo-7,8-dihydropyrido[2,3-d]pyrimidin-6-yl)pyridin-3-yl)-1-(2-fluorophenyl)methanesulfonamide]"
7,0.46,"CC(C)n1c(=O)c(-c2ccc(NS(=O)(=O)Cc3ccccc3F)cn2)cc2cnc(N[C@@H]3CNC[C@@H](F)C3)nc21 [Compound 95, 1-(2-Fluorophenyl)-N-(6-(2-(((3S,5S)-5-fluoropiperidin-3-yl)amino)-8-isopropyl-7-oxo-7,8-dihydropyrido[2,3-d]pyrimidin-6-yl)pyridin-3-yl)methanesulfonamide]"
8,1.6,"CC(C)n1c(=O)c(-c2cc(F)c(NC(=O)[C@@H]3C[C@@H]3F)c(F)c2F)cc2cnc(N[C@H]3CC[C@H](N(C)C)CC3)nc21 [Compound 96, (1S,2S)—N-(4-(2-(((r,4r)-4-(dimethylamino)cyclohexyl)amino)-8-isopropyl-7-oxo-7,8-dihydropyrido[2,3-d]pyrimidin-6-yl)-2,3,6-trifluorophenyl)-2-fluorocyclopropane-1-carboxamide]"
